Assay results published in PMC3528106 (Neurobiology of disease, 2012).
Where two headings read alike, the source gives them in different places.

Key:
[1] = system: Hct116 cells; assay: Cell proliferation inhibition assay, Hct116; format: cell-based, human; details: for IC50: read-out: Proliferation inhibition Hct116, IC50, 72h
[2] = target: CYP3A4 (Homo sapiens, UniProt P08684); assay: CYP3A4 inhibition in liver cells; format: in vitro ADME; details: read-out: CYP3A4 IC50; inhibition of cytochrome P450 enzymes in liver cells
Chain of CYP3A4 (P08684 whole entry): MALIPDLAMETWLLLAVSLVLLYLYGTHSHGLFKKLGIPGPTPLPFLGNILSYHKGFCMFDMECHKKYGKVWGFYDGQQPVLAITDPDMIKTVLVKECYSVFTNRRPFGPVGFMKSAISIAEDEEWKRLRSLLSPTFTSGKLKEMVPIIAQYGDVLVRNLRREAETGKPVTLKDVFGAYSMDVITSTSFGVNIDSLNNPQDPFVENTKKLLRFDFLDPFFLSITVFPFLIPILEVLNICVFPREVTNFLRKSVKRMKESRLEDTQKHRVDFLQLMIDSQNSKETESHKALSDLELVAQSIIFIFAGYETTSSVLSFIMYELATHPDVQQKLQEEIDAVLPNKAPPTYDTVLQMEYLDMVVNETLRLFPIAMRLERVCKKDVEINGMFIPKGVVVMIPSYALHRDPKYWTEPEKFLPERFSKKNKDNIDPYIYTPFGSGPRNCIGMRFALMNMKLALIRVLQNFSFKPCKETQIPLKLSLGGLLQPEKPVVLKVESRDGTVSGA

[3] = target: CYP2D6 (Homo sapiens, UniProt P10635); assay: CYP2D6 inhibition in liver cells; format: in vitro ADME; details: read-out: CYP2D6 IC50; inhibition of cytochrome P450 enzymes in liver cells
Chain of CYP2D6 (P10635 whole entry): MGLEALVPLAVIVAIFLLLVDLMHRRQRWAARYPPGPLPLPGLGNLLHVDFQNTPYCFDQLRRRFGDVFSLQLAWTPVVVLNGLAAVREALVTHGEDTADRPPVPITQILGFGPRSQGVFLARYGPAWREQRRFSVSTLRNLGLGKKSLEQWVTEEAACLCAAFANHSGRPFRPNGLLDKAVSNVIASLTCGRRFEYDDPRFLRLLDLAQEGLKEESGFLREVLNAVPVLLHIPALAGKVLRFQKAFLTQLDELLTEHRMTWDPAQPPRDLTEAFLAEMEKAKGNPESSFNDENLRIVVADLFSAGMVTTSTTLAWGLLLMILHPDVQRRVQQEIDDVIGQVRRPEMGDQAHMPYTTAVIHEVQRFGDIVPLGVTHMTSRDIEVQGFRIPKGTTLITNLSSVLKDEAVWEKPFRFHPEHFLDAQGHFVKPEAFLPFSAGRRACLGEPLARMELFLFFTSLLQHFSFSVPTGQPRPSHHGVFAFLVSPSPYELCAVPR

[4] = system: STHdhQ111 striatal cells; assay: XTT assay of metabolic activity in STHdhQ111 striatal cells; format: cell-based, mouse; details: 24 and 48 hrs
[5] = system: Vdr and Dhrs4 expression in STHdhQ111 cells; assay: Expression of Vdr and Dhrs4 in STHdhQ111 striatal cells; format: cell-based, mouse
[6] = system: class I and class II HDAC enzymes; assay: HDAC subtype selectivity profile from IC50 values; details: in words
[7] = system: IMR90 cells; format: cell-based, human; details: read-out: Proliferation inhibition IMR90, IC50; 72h
[8] = target: T1, HDAC8 (Homo sapiens, UniProt Q9BY41); assay: HDAC8 inhibition, recombinant enzyme cell-free assay; details: read-out: IC50 for Class I HDAC enzymes: HDAC8; Table 1
T1 sequence (Q9BY41 1-377): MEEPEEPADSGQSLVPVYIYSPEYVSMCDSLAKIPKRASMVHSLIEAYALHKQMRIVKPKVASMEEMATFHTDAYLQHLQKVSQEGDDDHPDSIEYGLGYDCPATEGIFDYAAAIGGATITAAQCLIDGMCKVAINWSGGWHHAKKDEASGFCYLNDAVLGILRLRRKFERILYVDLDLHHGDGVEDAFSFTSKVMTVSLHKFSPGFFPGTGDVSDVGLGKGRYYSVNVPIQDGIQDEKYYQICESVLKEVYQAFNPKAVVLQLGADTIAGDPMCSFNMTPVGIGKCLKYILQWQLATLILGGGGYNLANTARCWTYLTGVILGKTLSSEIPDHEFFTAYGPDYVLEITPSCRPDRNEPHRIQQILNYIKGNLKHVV

[9] = target: HDAC4 (Homo sapiens, UniProt P56524); assay: HDAC4 inhibition; details: read-out: IC50 for Class II HDAC enzymes: HDAC4; Table 1
Chain of HDAC4 (P56524 whole entry, species assumed): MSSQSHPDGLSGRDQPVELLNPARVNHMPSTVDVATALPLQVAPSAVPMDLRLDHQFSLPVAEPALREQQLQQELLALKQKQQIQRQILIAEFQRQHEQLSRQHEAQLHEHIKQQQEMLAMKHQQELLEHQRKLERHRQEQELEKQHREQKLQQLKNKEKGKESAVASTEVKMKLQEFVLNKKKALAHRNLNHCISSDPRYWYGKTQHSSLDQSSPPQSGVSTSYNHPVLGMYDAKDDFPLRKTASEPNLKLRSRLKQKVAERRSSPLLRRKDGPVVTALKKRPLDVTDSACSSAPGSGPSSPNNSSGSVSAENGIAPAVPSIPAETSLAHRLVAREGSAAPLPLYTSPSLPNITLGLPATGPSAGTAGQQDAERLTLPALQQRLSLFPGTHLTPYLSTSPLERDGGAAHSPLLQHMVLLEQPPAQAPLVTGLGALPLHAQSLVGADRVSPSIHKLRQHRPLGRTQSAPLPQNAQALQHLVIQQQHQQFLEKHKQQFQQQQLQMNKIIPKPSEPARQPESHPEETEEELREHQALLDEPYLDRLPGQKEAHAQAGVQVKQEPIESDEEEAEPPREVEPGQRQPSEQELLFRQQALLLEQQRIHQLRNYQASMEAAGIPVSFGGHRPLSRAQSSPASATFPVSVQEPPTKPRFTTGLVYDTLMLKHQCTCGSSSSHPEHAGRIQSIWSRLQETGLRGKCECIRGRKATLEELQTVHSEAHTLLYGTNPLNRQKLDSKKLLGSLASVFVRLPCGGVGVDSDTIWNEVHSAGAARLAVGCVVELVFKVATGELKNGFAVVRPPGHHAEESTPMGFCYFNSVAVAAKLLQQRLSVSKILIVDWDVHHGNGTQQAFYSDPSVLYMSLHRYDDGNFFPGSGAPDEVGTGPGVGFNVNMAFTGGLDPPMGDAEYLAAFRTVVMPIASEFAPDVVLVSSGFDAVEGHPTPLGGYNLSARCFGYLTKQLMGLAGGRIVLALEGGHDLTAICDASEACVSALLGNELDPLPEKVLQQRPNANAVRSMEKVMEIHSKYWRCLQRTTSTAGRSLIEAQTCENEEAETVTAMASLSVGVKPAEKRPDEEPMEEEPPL

[10] = target: HDAC5 (Homo sapiens, UniProt Q9UQL6); assay: HDAC5 inhibition; details: read-out: IC50 for Class II HDAC enzymes: HDAC5; Table 1
Chain of HDAC5 (Q9UQL6 whole entry, species assumed): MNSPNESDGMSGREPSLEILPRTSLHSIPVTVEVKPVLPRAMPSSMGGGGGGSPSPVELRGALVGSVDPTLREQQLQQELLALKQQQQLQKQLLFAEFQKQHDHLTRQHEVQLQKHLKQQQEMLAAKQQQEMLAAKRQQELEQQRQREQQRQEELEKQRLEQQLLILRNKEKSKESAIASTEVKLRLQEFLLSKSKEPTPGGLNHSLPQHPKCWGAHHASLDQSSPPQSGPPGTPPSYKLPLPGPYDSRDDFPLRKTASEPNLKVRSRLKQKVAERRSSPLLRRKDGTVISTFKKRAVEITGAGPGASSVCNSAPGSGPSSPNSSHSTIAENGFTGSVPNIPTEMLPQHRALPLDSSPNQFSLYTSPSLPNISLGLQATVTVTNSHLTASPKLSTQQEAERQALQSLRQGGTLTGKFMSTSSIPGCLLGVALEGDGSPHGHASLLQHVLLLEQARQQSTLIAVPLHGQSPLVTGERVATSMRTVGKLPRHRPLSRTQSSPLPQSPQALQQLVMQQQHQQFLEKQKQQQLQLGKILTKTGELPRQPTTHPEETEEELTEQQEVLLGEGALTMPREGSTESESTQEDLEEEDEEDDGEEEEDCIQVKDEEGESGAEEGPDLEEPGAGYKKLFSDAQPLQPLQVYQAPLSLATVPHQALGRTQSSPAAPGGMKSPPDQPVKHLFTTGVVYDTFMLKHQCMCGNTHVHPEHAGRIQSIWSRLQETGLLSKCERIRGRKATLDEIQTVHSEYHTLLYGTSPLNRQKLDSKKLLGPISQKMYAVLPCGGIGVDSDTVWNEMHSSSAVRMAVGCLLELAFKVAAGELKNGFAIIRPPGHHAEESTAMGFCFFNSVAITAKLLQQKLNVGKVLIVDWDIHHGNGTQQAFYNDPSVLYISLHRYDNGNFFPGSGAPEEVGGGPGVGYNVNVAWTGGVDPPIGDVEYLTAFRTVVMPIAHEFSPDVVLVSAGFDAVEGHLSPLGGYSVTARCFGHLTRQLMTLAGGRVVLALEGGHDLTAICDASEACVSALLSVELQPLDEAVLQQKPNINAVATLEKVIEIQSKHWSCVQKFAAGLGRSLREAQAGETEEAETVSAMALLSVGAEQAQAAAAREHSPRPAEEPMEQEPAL

[11] = target: T2, HDAC7 (Homo sapiens, UniProt Q8WUI4); assay: HDAC7 inhibition; details: read-out: IC50 for Class II HDAC enzymes: HDAC7; Table 1
T2 sequence (Q8WUI4 1-952): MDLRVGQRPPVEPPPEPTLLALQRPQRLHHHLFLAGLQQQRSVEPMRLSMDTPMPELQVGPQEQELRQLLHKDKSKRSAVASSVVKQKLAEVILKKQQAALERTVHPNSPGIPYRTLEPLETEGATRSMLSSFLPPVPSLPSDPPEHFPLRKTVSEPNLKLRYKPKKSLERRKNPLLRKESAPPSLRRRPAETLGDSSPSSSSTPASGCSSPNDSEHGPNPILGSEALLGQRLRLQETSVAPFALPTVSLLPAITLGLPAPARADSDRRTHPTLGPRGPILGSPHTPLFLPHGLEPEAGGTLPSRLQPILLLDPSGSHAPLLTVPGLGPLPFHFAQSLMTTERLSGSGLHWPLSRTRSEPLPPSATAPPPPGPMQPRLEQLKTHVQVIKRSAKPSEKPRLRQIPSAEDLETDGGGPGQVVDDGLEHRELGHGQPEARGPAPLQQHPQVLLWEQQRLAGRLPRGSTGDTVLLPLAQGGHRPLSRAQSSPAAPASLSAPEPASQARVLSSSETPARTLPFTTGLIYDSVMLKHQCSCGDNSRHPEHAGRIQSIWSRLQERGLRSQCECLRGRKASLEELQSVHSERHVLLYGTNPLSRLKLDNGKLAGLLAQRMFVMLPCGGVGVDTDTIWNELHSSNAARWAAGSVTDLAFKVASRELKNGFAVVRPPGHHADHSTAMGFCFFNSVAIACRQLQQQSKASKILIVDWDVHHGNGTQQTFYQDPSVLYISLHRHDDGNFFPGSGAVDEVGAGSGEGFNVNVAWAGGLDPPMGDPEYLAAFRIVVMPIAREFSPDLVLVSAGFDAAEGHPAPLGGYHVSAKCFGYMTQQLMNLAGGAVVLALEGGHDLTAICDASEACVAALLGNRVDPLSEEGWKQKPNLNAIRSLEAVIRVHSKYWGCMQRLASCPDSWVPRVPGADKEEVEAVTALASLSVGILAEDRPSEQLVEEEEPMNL

[12] = system: HD-related gene expression in striatum, R6/2 transgenic mice; assay: Real-time PCR of HD-related genes in striatum of R6/2 transgenic mice
[13] = target: HDAC2 (Homo sapiens, UniProt Q92769); assay: HDAC2 inhibition, Fluor-de-Lys fluorescence assay with purified enzyme
Chain of HDAC2 (Q92769 whole entry): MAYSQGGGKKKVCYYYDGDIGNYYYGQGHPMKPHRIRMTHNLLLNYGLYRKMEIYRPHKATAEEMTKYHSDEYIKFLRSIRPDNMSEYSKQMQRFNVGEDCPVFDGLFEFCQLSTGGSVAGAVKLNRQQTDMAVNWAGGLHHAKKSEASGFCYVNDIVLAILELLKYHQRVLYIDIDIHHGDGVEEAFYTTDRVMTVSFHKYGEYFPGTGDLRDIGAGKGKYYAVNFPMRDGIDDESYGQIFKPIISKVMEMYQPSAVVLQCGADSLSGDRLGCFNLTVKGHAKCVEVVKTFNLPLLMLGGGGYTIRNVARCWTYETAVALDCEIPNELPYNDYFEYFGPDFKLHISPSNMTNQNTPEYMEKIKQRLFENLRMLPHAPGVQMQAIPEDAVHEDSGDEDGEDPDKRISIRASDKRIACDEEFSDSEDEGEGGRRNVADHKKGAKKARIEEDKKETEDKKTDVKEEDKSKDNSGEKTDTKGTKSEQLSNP

EC50 ([1]; read-out: EC50 for inhibition of proliferation of Hct116 cells) [µM] | IC50 [1] [µM] | IC50 [2] [µM] | IC50 [3] [µM] | activity against the class II HDACs, HDAC 4, 5 and 7 [6] | IC50 [8] [µM] | IC50 [9] [µM] | IC50 [10] [µM] | IC50 [11] [µM] | IC50 ([13]; read-out: IC50 for Class I HDAC enzymes: HDAC2, Table 1) [µM] | IC50 ([13]; read-out: HDAC2 IC50, Table 2) [µM] | SMILES | improvement of the metabolic deficit of STHdhQ111 cells, in words [4] | reversal of gene expression deficits (Vdr, Dhrs4), in words [5] | IC50 [7] [µM] | reversal of expression of genes relevant to HD, in words ([12]; 150 mg/kg s.c. three days, striatum) | genes whose expression deficits were corrected, of 13 tested ([12]; qRT-PCR)
10 | 10 | > 10 | > 10 | essentially no activity |  |  |  |  |  |  | Cc1ccc(NC(=O)CCCCCC(=O)Nc2ccccc2N)cc1 [4b] | significantly improved the metabolic deficit | effective at reversing gene expression deficits |  |  | 
 | 40 |  | > 10 |  | 13.2 | > 180 | > 180 | > 180 | 3 |  | Cc1ccc(C(=O)NCCCCCC(=O)Nc2ccc(F)cc2N)cc1 [compound 136] | significantly improved the metabolic deficit |  | > 50 | most effective | eight of the 13 genes tested
 |  | 0.11 | > 10 |  |  |  |  |  |  | 0.07 | Nc1ccc(-c2cccs2)cc1NC(=O)CCCCCCNC(=O)c1cccnc1 [compound 233] |  |  |  |  | 
